Where a SMILES comes first, the peptide text is derived from it. Bridges are numbered along the chain shown (N, C = ends). [ ]: non-standard residue; d: D form. The star is where a group is joined. hPhe(3,5-F2-4-CF3) = N[C@@H](CCc1cc(F)c(C(F)(F)F)c(F)c1)C(=O)O; hPhe(3-Cl-4-CF3) = N[C@@H](CCc1ccc(C(F)(F)F)c(Cl)c1)C(=O)O; NPrPhe(4-CF3) = CCCN[C@@H](Cc1ccc(C(F)(F)F)cc1)C(=O)O; NMeAbu(4,4,4-F3) = CN[C@@H](CC(F)(F)F)C(=O)O; NMeGly(cPent) = CN[C@H](C(=O)O)C1CCCC1; NMeD = CN[C@@H](CC(=O)O)C(=O)O; NMeL = CN[C@@H](CC(C)C)C(=O)O; αMeL = CC(C)C[C@](C)(N)C(=O)O; Morpholide = C1CN(*)CCO1; Ac5c = NC1(C(=O)O)CCCC1; Sar = CNCC(=O)O
Tests used:
[1] = target: GDP-bound NRAS wild-type protein (Homo sapiens, UniProt P01111); test: Binding to NRAS by surface plasmon resonance (SPR), KD and KD ratio to KRAS
Sequence of GDP-bound NRAS wild-type protein (P01111 whole entry): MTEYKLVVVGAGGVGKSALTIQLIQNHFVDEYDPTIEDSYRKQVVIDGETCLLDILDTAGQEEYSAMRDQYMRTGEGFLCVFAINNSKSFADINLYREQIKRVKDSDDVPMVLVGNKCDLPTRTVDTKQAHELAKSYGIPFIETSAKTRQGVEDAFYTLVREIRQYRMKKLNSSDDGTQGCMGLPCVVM
In short: (§1)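 GDP-bound biotin-Avi RAS captured at ~100–300 RU, 30°C, pH 7.4 HBS containing 10 µM GDP, 10 mM MgCl2, 1 mM DTT, 0.01% Tween 20 and 4% DMSO. KD by 1:1 fitting.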

HRAS wild-type protein = HRAS wild-type protein (Homo sapiens, UniProt P01112); test: Binding to HRAS by surface plasmon resonance (SPR), KD and KD ratio to KRAS
Sequence of HRAS wild-type protein (P01112 whole entry): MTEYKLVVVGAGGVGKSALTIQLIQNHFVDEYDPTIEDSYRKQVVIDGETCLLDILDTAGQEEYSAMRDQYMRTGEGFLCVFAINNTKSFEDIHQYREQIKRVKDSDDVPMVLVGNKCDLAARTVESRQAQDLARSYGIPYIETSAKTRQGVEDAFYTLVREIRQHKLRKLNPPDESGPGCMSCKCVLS
In short: as §1

[2] = system: human lung cancer strain NCI-H441; type: cell-based
In short: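 Readout: […] after the ATP-based reagent. Compound: serial dilutions in dimethyl sulfoxide.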

[3] = ratio of the KD value with respect to GDP-bound NRAS wild-type protein to the KD value with respect to KRAS
[4] = ratio of the KD value with respect to HRAS wild-type protein to the KD value with respect to KRAS
[5] = ratio of KD for GDP-bound NRAS wild-type protein to KD for KRAS
[6] = ratio of KD for HRAS wild-type protein to KD for KRAS

SMILES	IC50 [2]	NRAS /KRAS [1, 3]	HRAS /KRAS (HRAS wild-type protein; [4])	NRAS /KRAS [1, 5]	HRAS /KRAS (HRAS wild-type protein; [6])
CCO[C@@H]1C[C@H]2C(=O)NC3(CC(C)(C)C3)C(=O)N(C)[C@@H](C3CCCC3)C(=O)N(C)[C@H](C(=O)N(C)C)CC(=O)N(C)[C@@H](CC(C)C)C(=O)N[C@@H]([C@@H](C)CC)C(=O)N(C)CC(=O)N(C)[C@H]3C/C=C\CCN(C3=O)[C@@H](Cc3ccc(C(F)(F)F)cc3)C(=O)N(C)CC(=O)N[C@@H](CCc3ccc(C(F)(F)F)c(F)c3)C(=O)N2C1 [PP1931]	9.5 nM	A (a compound having 10 or more and less than 20 is denoted as A)	B (a compound having 3 or more and less than 10 is denoted as B)	–	–
C#CC[C@H]1C(=O)N[C@@H]([C@@H](C)CC)C(=O)N(C)CC(=O)N(C)[C@H]2C/C=C\CCN(C2=O)[C@@H](Cc2ccc(C(F)(F)F)cc2)C(=O)N(C)CC(=O)N[C@@H](CCc2ccc(C(F)(F)F)c(OC)c2)C(=O)N2CC[C@H]2C(=O)NC2(CC(C)(C)C2)C(=O)N(C)[C@@H](C2CCCC2)C(=O)N(C)[C@H](C(=O)N(C)C)CC(=O)N1C [PP2909]	61.3 nM	–	–	B (a compound having 3 or more and less than 10 is denoted as B)	B (a compound having 3 or more and less than 10 is denoted as B)
CCO[C@@H]1C[C@H]2C(=O)NC3(CC(C)(C)C3)C(=O)N(C)[C@@H](C3CCCC3)C(=O)N(C)[C@H](C(=O)N3CCCCC3)CC(=O)N(C)[C@H]3CCC/C=C/c4ccc(cc4)C[C@@H](C(=O)N(C)CC(=O)N[C@@H](CCc4ccc(Cl)c(Cl)c4)C(=O)N2C1)N1CC/C=C\C[C@@H](C1=O)N(C)C(=O)CN(C)C(=O)[C@H]([C@@H](C)CC)NC3=O [PP2578]	17.7 nM	–	–	AA (a compound having 20 or more is denoted as AA)	A (a compound having 10 or more and less than 20 is denoted as A)
CC[C@H](C)[C@@H]1NC(=O)[C@H](CC(C)C)N(C)C(=O)C[C@@H](C(=O)N2CCOCC2)N(CC)C(=O)[C@H](C2CCCC2)N(C)C(=O)C2(CCC2)NC(=O)[C@@H]2[C@H](O)CCN2C(=O)[C@H](CCc2cc(F)c(C(F)(F)F)c(F)c2)NC(=O)CN(C)C(=O)[C@H](Cc2ccc(C(F)(F)F)cc2)N2CCCCC[C@@H](C2=O)N(C)C(=O)CN(C)C1=O [PP0955]	6480 nM	–	–	A (a compound having 10 or more and less than 20 is denoted as A)	A (a compound having 10 or more and less than 20 is denoted as A)
CCO[C@@H]1C[C@H]2C(=O)N[C@@]3(C)CCCCCCC[C@@H](C(=O)N[C@@H]([C@@H](C)CC)C(=O)N(C)CC(=O)N(C)[C@H]4CCCCN(C4=O)[C@@H](Cc4ccc(C(F)(F)F)cc4)C(=O)N(C)CC(=O)N[C@@H](CCc4cc(F)c(C(F)(F)F)c(F)c4)C(=O)N2C1)N(C)C(=O)C[C@@H](C(=O)N1CCOCC1)N(C)C(=O)[C@H](C1CCCC1)N(C)C3=O [PP0993]	332 nM	–	–	B (a compound having 3 or more and less than 10 is denoted as B)	B (a compound having 3 or more and less than 10 is denoted as B)

Further molecules by falling IC50 [2], results first:

IC50 [2]	SMILES	NRAS /KRAS [1, 3]	HRAS /KRAS (HRAS wild-type protein; [4])	NRAS /KRAS [1, 5]	HRAS /KRAS (HRAS wild-type protein; [6])
99.2 nM	CCCN1C(=O)CN(C)C(=O)CN(C)C(=O)[C@H]([C@@H](C)CC)NC(=O)[C@H](CC(C)C)N(C)C(=O)C[C@@H](C(=O)N(C)C)N(C)C(=O)[C@H](C2CCCC2)N(C)C(=O)[C@](C)(CC(C)C)NC(=O)[C@@H]2CCCN2C(=O)[C@H](CCc2cc(F)c(C(F)(F)F)c(F)c2)NC(=O)CN(C)C(=O)[C@@H]1Cc1ccc(C(F)(F)F)cc1 [PP0738] ([NMeL]I[Sar][Sar][NPrPhe(4-CF3)][Sar][hPhe(3,5-F2-4-CF3)]P[αMeL][NMeGly(cPent)][NMeD]-NMe2; lactam N-11)	B (a compound having 3 or more and less than 10 is denoted as B)	B (a compound having 3 or more and less than 10 is denoted as B)	–	–
4.1 nM	CCO[C@@H]1C[C@H]2C(=O)NC3(CC(C)(C)C3)C(=O)N(C)[C@@H](C(CC)CC)C(=O)N(C)[C@H](C(=O)N(C)C)CC(=O)N(C)[C@H]3CCC/C=C/c4ccc(cc4)C[C@@H](C(=O)N(C)CC(=O)N[C@@H](CCc4cc(F)c(C(F)(F)F)c(F)c4)C(=O)N2C1)N1CC/C=C\C[C@@H](C1=O)N(C)C(=O)CN(C)C(=O)[C@H]([C@@H](C)CC)NC3=O [PP2575]	–	–	A (a compound having 10 or more and less than 20 is denoted as A)	A (a compound having 10 or more and less than 20 is denoted as A)
3 nM	CCCN1C(=O)CN(C)C(=O)CN(C)C(=O)[C@H]([C@@H](C)CC)NC(=O)[C@H](CC(F)(F)F)N(C)C(=O)C[C@@H](C(=O)N2CCOCC2)N(C)C(=O)[C@H](C2CCCC2)N(C)C(=O)C2(CCCC2)NC(=O)[C@@H]2CCCN2C(=O)[C@H](CCc2ccc(C(F)(F)F)c(Cl)c2)NC(=O)CN(C)C(=O)[C@@H]1Cc1ccc(C(F)(F)F)cc1 [PP0187] ([NMeAbu(4,4,4-F3)]I[Sar][Sar][NPrPhe(4-CF3)][Sar][hPhe(3-Cl-4-CF3)]P[Ac5c][NMeGly(cPent)][NMeD]-Morpholide; lactam N-11)	–	–	B (a compound having 3 or more and less than 10 is denoted as B)	C (A compound having a KD ratio of 0.1 or more and less than 3 is denoted as C)

— EP4603105A1, “PHARMACEUTICAL COMPOSITION CONTAINING CYCLIC COMPOUND HAVING SELECTIVE KRAS INHIBITORY EFFECT AGAINST HRAS AND NRAS” (CHUGAI SEIYAKU KABUSHIKI KAISHA, priority 2022, dated 2024)
